Reference: patent US20020037931A1, “Substituted nitrated catechols, their use in the treatment of some central and peripheral nervous system disorders and pharmaceutical compositions containing them” (priority 2000, published 2002)

Experiments:
[1] = tested on: COMT; assay: Ex vivo liver COMT activity after administration by gastric tube; format: in vivo; conditions: rat liver homogenate
[2] = tested on: COMT; assay: Ex vivo brain COMT activity after administration by gastric tube; format: in vivo, rat; conditions: for COMT activity (% of control), Brain: rat brain homogenate; for inhibitory profile brain COMT versus liver COMT (in words) / inhibition of brain COMT (in words): after oral administration; for inhibitory profile brain COMT versus liver COMT (in words) / access to the brain / activity in the periphery (in words) / inhibition of brain COMT (in words): rat; for inhibitory profile brain COMT versus liver COMT (in words): brain compared with liver; for access to the brain / activity in the periphery (in words): conclusion from ex vivo COMT inhibition
[3] = tested on: COMT; assay: COMT activity (methylation of adrenaline to metanephrine) in rat brain homogenates; format: biochemical; conditions: rat brain homogenate; test compound 100 nM; means±SEM, n=4-8
[4] = target: T1, COMT (Homo sapiens, UniProt P21964); assay: COMT activity in intact SK-N-SH cell monolayers; format: cell-based; conditions: SK-N-SH cells; test compound 100 nM; means±SEM, n=4-8
T1 construct: COMT activity was evaluated in cell monolayers by the ability to methylate adrenaline; host or cells: SK-N-SH cells
T1 sequence (P21964 1-271): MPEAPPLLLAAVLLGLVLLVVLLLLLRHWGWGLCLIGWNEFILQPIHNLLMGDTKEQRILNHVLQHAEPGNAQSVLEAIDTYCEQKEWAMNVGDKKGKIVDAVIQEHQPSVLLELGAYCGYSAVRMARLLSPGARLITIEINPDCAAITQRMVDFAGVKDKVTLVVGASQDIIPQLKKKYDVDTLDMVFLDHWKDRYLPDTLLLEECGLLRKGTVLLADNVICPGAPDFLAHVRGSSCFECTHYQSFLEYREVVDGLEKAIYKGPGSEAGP

[5] = tested on: COMT; assay: COMT activity (methylation of adrenaline to metanephrine) in rat liver homogenates; format: biochemical; conditions: rat liver homogenate; test compound 3 μM; means±SEM, n=4-8
[6] = 0.5 h after administration by gastric tube
[7] = 1 h after administration by gastric tube
[8] = 3 h after administration by gastric tube
[9] = 6 h after administration by gastric tube
[10] = 9 h after administration by gastric tube

O=C(c1ccccc1)c1ccc(O)c(O)c1[N+](=O)[O-] [Compound 5, (3,4-Dihydroxy-2-nitro-phenyl)-phenyl-methanone]
COMT activity (% of control), Liver [1, 6]: 2.1 ± 0.5 % of control
COMT activity (% of control), Liver [1, 7]: 26.5 ± 1.3 % of control
COMT activity (% of control), Liver [1, 8]: 52.1 ± 2.6 % of control
COMT activity (% of control), Liver [1, 9]: 79.0 ± 14.8 % of control
COMT activity (% of control), Liver [1, 10]: 108.9 % of control
COMT activity (% of control), Brain [2, 6]: 12.2 ± 0.3 % of control
COMT activity (% of control), Brain [2, 7]: 25.5 ± 1.8 % of control
COMT activity (% of control), Brain [2, 8]: 52.2 ± 2.3 % of control
COMT activity (% of control), Brain [2, 9]: 92.5 ± 7.9 % of control
COMT activity (% of control), Brain [2, 10]: 102.3 % of control
inhibitory profile brain COMT versus liver COMT (in words) [2]: much more potent as a peripheral COMT inhibitor than in brain
access to the brain / activity in the periphery (in words) [2]: limited access to the brain
COMT activity, Brain (% of control) [3]: 6 ± 1 % of control
COMT activity, SK-N-SH (% of control) [4]: 2 ± 0 % of control
COMT activity, Liver (% of control) [5]: 0.3 ± 0.1 % of control

CCCC(=O)Oc1ccc(C(=O)c2ccccc2)c([N+](=O)[O-])c1OC(=O)CCC [Compound 20, Butyric Acid, 3-Benzoyl-6-butyryloxy-2-nitro-phenyl Ester]
COMT activity (% of control), Liver [1, 6]: 57.9 ± 4.7 % of control
COMT activity (% of control), Liver [1, 7]: 64.4 ± 5.0 % of control
COMT activity (% of control), Liver [1, 8]: 66.5 ± 7.8 % of control
COMT activity (% of control), Liver [1, 9]: 94.5 ± 0.3 % of control
COMT activity (% of control), Liver [1, 10]: 110.1 % of control
COMT activity (% of control), Brain [2, 6]: 25.8 ± 4.3 % of control
COMT activity (% of control), Brain [2, 7]: 31.4 ± 3.0 % of control
COMT activity (% of control), Brain [2, 8]: 49.4 ± 5.3 % of control
COMT activity (% of control), Brain [2, 9]: 81.3 ± 3.7 % of control
COMT activity (% of control), Brain [2, 10]: 72.8 % of control
inhibition of brain COMT (in words) [2]: potent inhibitors of brain COMT
inhibitory profile brain COMT versus liver COMT (in words) [2]: much more potent upon brain COMT than liver COMT
access to the brain / activity in the periphery (in words) [2]: enhanced access to the brain and limited activity in the periphery
COMT activity, Brain (% of control) [3]: 3 ± 0 % of control
COMT activity, SK-N-SH (% of control) [4]: 0 ± 0 % of control
COMT activity, Liver (% of control) [5]: 0.6 ± 0.0 % of control

O=C(Cc1ccccc1)c1ccc(O)c(O)c1[N+](=O)[O-] [Compound 24, 1-(3,4-Dihydroxy-2-nitro-phenyl)-2-phenyl ethanone]
COMT activity (% of control), Liver [1, 6]: 6.2 ± 0.8 % of control
COMT activity (% of control), Liver [1, 7]: 8.4 ± 1.6 % of control
COMT activity (% of control), Liver [1, 8]: 61.9 ± 10.8 % of control
COMT activity (% of control), Liver [1, 9]: 91.6 ± 8.8 % of control
COMT activity (% of control), Liver [1, 10]: 125.9 % of control
COMT activity (% of control), Brain [2, 6]: 18.7 ± 1.6 % of control
COMT activity (% of control), Brain [2, 7]: 18.7 ± 0.6 % of control
COMT activity (% of control), Brain [2, 8]: 37.0 ± 5.9 % of control
COMT activity (% of control), Brain [2, 9]: 64.8 ± 3.7 % of control
COMT activity (% of control), Brain [2, 10]: 98.4 % of control
inhibition of brain COMT (in words) [2]: potent inhibitors of brain COMT
access to the brain / activity in the periphery (in words) [2]: limited access to the brain
COMT activity, Brain (% of control) [3]: 7 ± 1 % of control
COMT activity, SK-N-SH (% of control) [4]: 24 ± 1 % of control
COMT activity, Liver (% of control) [5]: 0.7 ± 0.0 % of control
